Data from paper PMC9596378, “Discovery and molecular basis of subtype-selective cyclophilin inhibitors” (Nature Chemical Biology, 2022).
Several values for one entry are separate records, joined by “and”; a condition that tells them apart may be missing. Equal entries are not always repeated. Where two headings read alike, the source gives them in different places. Blank lines part the entries; values can stand above or below the compound they belong to.

Columns and labels:
Test in all cases: Chymotrypsin coupled prolyl-isomerase assay
Type in all cases: biochemical
CypA = target: T1, CypA (Homo sapiens, UniProt P62937)
T1 construct: PPIA (UniProtKB Entry P62937: residues 1–165); made in house; host or cells: E. coli BL21(DE3)
T1 sequence (P62937 whole entry, the tested form may be a part): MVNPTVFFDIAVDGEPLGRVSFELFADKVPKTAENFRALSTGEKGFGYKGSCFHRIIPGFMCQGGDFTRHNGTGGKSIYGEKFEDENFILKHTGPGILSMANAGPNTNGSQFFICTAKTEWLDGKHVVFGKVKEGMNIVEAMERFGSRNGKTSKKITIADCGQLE
Method in brief: (§1)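 Recombinant cyclophilin (5 nM final) in 25 mM HEPES pH 7.3, 100 mM NaCl, 0.01% Triton X-100 was preincubated with compound at 2–3 °C. It was then coupled with 25 µM α-chymotrypsin and 5 µM Suc-AAPF-AMC (LiCl/TFE), and AMC fluorescence was followed for 330 s.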

CypC = target: T2, CypC (Homo sapiens, UniProt P45877)
T2 construct: PPIC (UniProtKB Entry P45877: residues 24–212); host or cells: E. coli BL21(DE3)
T2 sequence (P45877 24-212): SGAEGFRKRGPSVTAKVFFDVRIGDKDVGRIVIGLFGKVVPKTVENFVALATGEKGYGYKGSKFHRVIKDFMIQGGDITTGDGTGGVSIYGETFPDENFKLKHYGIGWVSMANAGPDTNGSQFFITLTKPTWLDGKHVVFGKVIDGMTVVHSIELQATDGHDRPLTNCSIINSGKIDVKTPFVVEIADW
Method in brief: as §1

CypD K118E = target: T3, CypD K118E (Homo sapiens, UniProt P30405, K118E)
T3 construct: made in house; host or cells: E. coli BL21(DE3)
T3 sequence (P30405 45-207 K118E): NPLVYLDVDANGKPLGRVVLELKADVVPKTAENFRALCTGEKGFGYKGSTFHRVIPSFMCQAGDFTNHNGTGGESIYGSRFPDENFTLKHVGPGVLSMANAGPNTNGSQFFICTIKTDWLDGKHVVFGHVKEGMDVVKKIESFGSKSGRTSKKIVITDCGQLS
Method in brief: as §1

CypD R124A = target: T4, CypD R124A (Homo sapiens, UniProt P30405, R124A); conditions: prolyl-isomerase inhibition; read-out: IC50 CypD R124A
T4 construct: made in house; host or cells: E. coli BL21(DE3)
T4 sequence (P30405 45-207 R124A): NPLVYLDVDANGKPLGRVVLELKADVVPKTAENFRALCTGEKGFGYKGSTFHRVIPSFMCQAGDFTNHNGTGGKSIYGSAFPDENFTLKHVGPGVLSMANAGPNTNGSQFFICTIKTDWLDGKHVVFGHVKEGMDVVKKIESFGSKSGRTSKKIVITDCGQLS
Method in brief: as §1

CypE = target: T5, CypE (Homo sapiens, UniProt Q9UNP9)
T5 construct: PPIE (UniProtKB Entry Q9UNP9: residues 131–301); host or cells: E. coli BL21(DE3)
T5 sequence (Q9UNP9 131-301): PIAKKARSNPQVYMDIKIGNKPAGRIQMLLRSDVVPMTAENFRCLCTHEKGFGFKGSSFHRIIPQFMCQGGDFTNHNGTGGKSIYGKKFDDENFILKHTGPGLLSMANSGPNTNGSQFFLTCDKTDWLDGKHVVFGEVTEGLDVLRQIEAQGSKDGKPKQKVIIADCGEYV
Method in brief: as §1

CypG = target: T6, CypG (Homo sapiens, UniProt Q13427)
T6 construct: PPIG (UniProtKB Entry Q13427: residues 1–179); His6 with thrombin site (pET28a LIC leader) (N); host or cells: E. coli BL21(DE3)
T6 sequence (Q13427 1-179): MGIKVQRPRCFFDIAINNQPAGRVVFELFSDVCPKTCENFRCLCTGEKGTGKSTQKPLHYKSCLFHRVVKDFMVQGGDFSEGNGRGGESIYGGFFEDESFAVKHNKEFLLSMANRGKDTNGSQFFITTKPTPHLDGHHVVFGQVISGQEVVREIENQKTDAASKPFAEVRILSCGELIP
Method in brief: as §1

CypH = target: T7, CypH (Homo sapiens, UniProt O43447)
T7 construct: PPIH (UniProtKB Entry O43447: residues 1–177); His6 with TEV site (2BT vector leader) (N); made in house; host or cells: E. coli BL21(DE3)
T7 sequence (O43447 whole entry, the tested form may be a part): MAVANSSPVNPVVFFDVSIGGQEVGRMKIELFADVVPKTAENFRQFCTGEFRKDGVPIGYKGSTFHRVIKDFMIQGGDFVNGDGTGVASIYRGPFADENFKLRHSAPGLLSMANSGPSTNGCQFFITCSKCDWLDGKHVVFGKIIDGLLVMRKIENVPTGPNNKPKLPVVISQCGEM
Method in brief: as §1

[1] = wild-type CypA, read-out: Wild-Type Cyclophilin Prolyl Isomerase Inhibition IC50 Values, CypA
[2] = wild-type CypC, read-out: Wild-Type Cyclophilin Prolyl Isomerase Inhibition IC50 Values, CypC
[3] = wild-type CypE, read-out: Wild-Type Cyclophilin Prolyl Isomerase Inhibition IC50 Values, CypE
[4] = wild-type CypG, read-out: Wild-Type Cyclophilin Prolyl Isomerase Inhibition IC50 Values, CypG
[5] = wild-type CypH, read-out: Wild-Type Cyclophilin Prolyl Isomerase Inhibition IC50 Values, CypH
[6] = prolyl-isomerase inhibition, 5 nM cyclophilin, read-out: IC50 CypE
[7] = prolyl-isomerase inhibition, 5 nM cyclophilin, read-out: IC50 CypH
[8] = prolyl-isomerase inhibition, 5 nM cyclophilin, read-out: IC50 CypA

Structure (SMILES): NCCCc1ccc(-c2ccc(C[C@@H]3NC(=O)[C@]4(Cc5ccccc5)CCCN(C4)C(=O)/C=C/C(=O)NCC[C@@H](C(=O)NCCOCCN)NC(=O)Cc4ccccc4CNC3=O)cc2)cc1 [Compound B32]
IC50 (CypA; [1]): 8 µM | IC50 (CypC; [2]): 1.2 µM | IC50 (CypD K118E; prolyl-isomerase inhibition): 1.1 µM | potency improvement on CypD K118E, R124A compared to wild-type CypD (CypD K118E; single mutants K118E, R124A): 5- to 6 fold | IC50 (CypD R124A): 0.7 µM | IC50 (CypE; [3]): 7 µM | IC50 (CypG; [4]): 11 µM | IC50 (CypH; [5]): > 50 µM

Structure (SMILES): NC(=O)C1CCNC(=O)C=CC(=O)N2CCCC(Cc3ccccc3)(C2)C(=O)NC(Cc2ccc(-c3ccc(C=O)c(B(O)O)c3)cc2)C(=O)NCc2ccccc2CC(=O)N1 (stereo not drawn) [Compound C3A]
CypA prolyl-isomerase raw dose-response reading (Fig. 6c) (CypA; Dose 0.00114312 µM): 0.07306 and 0.07874 and 0.07172 | CypA prolyl-isomerase raw dose-response reading (Fig. 6c) (CypA; Dose 0.00342936 µM): 0.06275 and 0.05859 | CypA prolyl-isomerase raw dose-response reading (Fig. 6c) (CypA; Dose 0.0102881 µM): 0.07757 and 0.05083 and 0.08593 | CypA prolyl-isomerase raw dose-response reading (Fig. 6c) (CypA; Dose 0.0308642 µM): 0.09366 and 0.07648 and 0.07092 | CypA prolyl-isomerase raw dose-response reading (Fig. 6c) (CypA; Dose 0.0925926 µM): 0.1069 and 0.06289 and 0.07689 | CypA prolyl-isomerase raw dose-response reading (Fig. 6c) (CypA; Dose 0.205761 µM): 0.06396 and 0.05394 and 0.06349 and 0.0486 and 0.04768 and 0.0647 and 0.04401 and 0.05288 | CypA prolyl-isomerase raw dose-response reading (Fig. 6c) (CypA; Dose 0.277778 µM): 0.09488 and 0.06 and 0.09425 | CypA prolyl-isomerase raw dose-response reading (Fig. 6c) (CypA; Dose 0.833333 µM): 0.06403 and 0.06231 and 0.07443 | CypA prolyl-isomerase raw dose-response reading (Fig. 6c) (CypA; Dose 2.5 µM): 0.06101 and 0.05306 and 0.05126 | IC50 (CypA; Independent replicate 1, read-out: IC50 CypA): ~3 µM | IC50 (CypA; Independent replicate 2, read-out: IC50 CypA): 2.2 ± 0.7 µM | IC50 (CypA; Independent replicate 3, read-out: IC50 CypA): 1.6 ± 0.7 µM | IC50 (CypA; Independent replicate 4, read-out: IC50 CypA): 4 ± 2 µM | IC50 (CypA; [1]): 3 µM | CypC prolyl-isomerase raw dose-response reading (Fig. 6c) (CypC; Dose 0.00457247 µM): 0.03895 and 0.0375 | CypC prolyl-isomerase raw dose-response reading (Fig. 6c) (CypC; Dose 0.0137174 µM): 0.04174 and 0.04247 and 0.04306 | CypC prolyl-isomerase raw dose-response reading (Fig. 6c) (CypC; Dose 0.0411523 µM): 0.05121 and 0.04011 and 0.04386 | CypC prolyl-isomerase raw dose-response reading (Fig. 6c) (CypC; Dose 0.123457 µM): 0.05033 and 0.03342 and 0.04085 | CypC prolyl-isomerase raw dose-response reading (Fig. 6c) (CypC; Dose 0.37037 µM): 0.03932 and 0.03966 and 0.05738 | CypC prolyl-isomerase raw dose-response reading (Fig. 6c) (CypC; Dose 1.11111 µM): 0.0536 and 0.03667 and 0.04316 | CypC prolyl-isomerase raw dose-response reading (Fig. 6c) (CypC; Dose 3.33333 µM): 0.03577 and 0.0377 and 0.04529 | CypC prolyl-isomerase raw dose-response reading (Fig. 6c) (CypC; Dose 10 µM): 0.03905 and 0.04054 and 0.0318 | IC50 (CypC; Independent replicate 1, read-out: IC50 CypC): > 10 µM | IC50 (CypC; Independent replicate 2, read-out: IC50 CypC): 15 ± 4 µM | IC50 (CypC; Independent replicate 3, read-out: IC50 CypC): 20 ± 10 µM | IC50 (CypC; Independent replicate 4, read-out: IC50 CypC): 19 ± 9 µM | IC50 (CypC; [2]): 17 µM | higher CypE inhibition potency of C3A over C5A (CypE): 75 fold | selectivity for CypE over CypA (CypE): > 100 fold | IC50 (CypE; Independent replicate 1, read-out: IC50 CypE): 0.013 ± 0.003 µM | IC50 (CypE; Independent replicate 2, read-out: IC50 CypE): 0.018 ± 0.006 µM | IC50 (CypE; Independent replicate 3, read-out: IC50 CypE): 0.009 ± 0.002 µM | IC50 (CypE; Independent replicate 4, read-out: IC50 CypE): 0.012 ± 0.004 µM | selectivity for CypE over the other cyclophilins screened (CypE; prolyl-isomerase IC50): 30- to 4,000 fold | IC50 (CypE; [6]): 0.013 ± 0.004 µM | IC50 (CypE; prolyl-isomerase inhibition, read-out: IC50 CypE): 0.013 µM | IC50 (CypE; [3]): 0.013 µM | CypG prolyl-isomerase raw dose-response reading (Fig. 6c) (CypG; Dose 0.00457247 µM): 0.04675 and 0.05256 and 0.06278 | CypG prolyl-isomerase raw dose-response reading (Fig. 6c) (CypG; Dose 0.0137174 µM): 0.05042 and 0.05542 and 0.04906 | CypG prolyl-isomerase raw dose-response reading (Fig. 6c) (CypG; Dose 0.0411523 µM): 0.05063 and 0.04839 and 0.04139 | CypG prolyl-isomerase raw dose-response reading (Fig. 6c) (CypG; Dose 0.123457 µM): 0.04982 and 0.05395 and 0.05565 | CypG prolyl-isomerase raw dose-response reading (Fig. 6c) (CypG; Dose 0.37037 µM): 0.04159 and 0.05179 and 0.03978 | CypG prolyl-isomerase raw dose-response reading (Fig. 6c) (CypG; Dose 1.11111 µM): 0.05731 and 0.0555 and 0.05308 | CypG prolyl-isomerase raw dose-response reading (Fig. 6c) (CypG; Dose 3.33333 µM): 0.04975 and 0.046 and 0.05109 | CypG prolyl-isomerase raw dose-response reading (Fig. 6c) (CypG; Dose 10 µM): 0.05239 and 0.04081 and 0.048 | IC50 (CypG; Independent replicate 1, read-out: IC50 CypG): > 10 µM | IC50 (CypG; Independent replicate 2, read-out: IC50 CypG): ~40 µM | IC50 (CypG; Independent replicate 3, read-out: IC50 CypG): ~26 µM | IC50 (CypG; Independent replicate 4, read-out: IC50 CypG): ~50 µM | IC50 (CypG; [4]): 40 µM | CypH prolyl-isomerase raw dose-response reading (Fig. 6c) (CypH; Dose 0.00457247 µM): 0.05086 and 0.04496 | CypH prolyl-isomerase raw dose-response reading (Fig. 6c) (CypH; Dose 0.0137174 µM): 0.05594 and 0.04525 and 0.04484 | CypH prolyl-isomerase raw dose-response reading (Fig. 6c) (CypH; Dose 0.0411523 µM): 0.05731 and 0.04453 and 0.05359 | CypH prolyl-isomerase raw dose-response reading (Fig. 6c) (CypH; Dose 0.123457 µM): 0.05145 and 0.04681 and 0.07329 | CypH prolyl-isomerase raw dose-response reading (Fig. 6c) (CypH; Dose 0.37037 µM): 0.05882 and 0.04794 and 0.07376 | CypH prolyl-isomerase raw dose-response reading (Fig. 6c) (CypH; Dose 1.11111 µM): 0.06718 and 0.05255 and 0.05895 | CypH prolyl-isomerase raw dose-response reading (Fig. 6c) (CypH; Dose 3.33333 µM): 0.06287 and 0.05436 and 0.04825 | CypH prolyl-isomerase raw dose-response reading (Fig. 6c) (CypH; Dose 10 µM): 0.04443 and 0.06084 and 0.04295 | IC50 (CypH; Independent replicate 1, read-out: IC50 CypH): > 10 µM | IC50 (CypH; Independent replicate 2, read-out: IC50 CypH): > 50 µM | IC50 (CypH; Independent replicate 3, read-out: IC50 CypH): ~40 µM | IC50 (CypH; Independent replicate 4, read-out: IC50 CypH): > 50 µM | IC50 (CypH; [7]): > 50 µM | IC50 (CypH; [5]): > 50 µM

Structure (SMILES): NC(=O)[C@@H]1CCNC(=O)/C=C/C(=O)N2CCC[C@](Cc3ccccc3)(C2)C(=O)N[C@@H](Cc2ccc(-c3cccc(B(O)O)c3)cc2)C(=O)NCc2ccccc2CC(=O)N1 [Compound C6A]
IC50 (CypA; [8]): ~6 µM | IC50 (CypA; [1]): 6 µM | IC50 (CypC; prolyl-isomerase inhibition, 5 nM cyclophilin, read-out: IC50 CypC): ~5 µM | IC50 (CypC; [2]): 5 µM | IC50 (CypE; [6]): ~4 µM and 4 µM | IC50 (CypG; [4]): 1.3 µM | IC50 (CypH; [7]): ~4 µM | IC50 (CypH; [5]): 4 µM

IC50 (CypA; [8]): ~60 µM | IC50 (CypA; [1]): 60 µM | IC50 (CypC; [2]): 23 µM | IC50 (CypE; [3]): 23 µM | IC50 (CypG; [4]): 16 µM | IC50 (CypH; [7]): ~100 µM | IC50 (CypH; [5]): 100 µM
Structure (SMILES): NCCOCCNC(=O)C1CCNC(=O)C=CC(=O)N2CCCC(C2)C(=O)NC(Cc2ccco2)C(=O)NCc2ccccc2CC(=O)N1 (stereo not drawn) [JOMBt]
